Source: ChEMBL document CHEMBL4819125, “Synthesis and anti-proliferation activity of mogrol derivatives bearing quinoline and triazole moieties” (Bioorg Med Chem Lett, 2021)

Legend:
[1] = system: NCI-H460; experiment: Antiproliferative activity against human NCI-H460 cells assessed as reduction in cell growth at 30 uM by CCK8 assay relative to control; type: functional
[2] = system: A549; experiment: Antiproliferative activity against human A549 cells assessed as reduction in cell growth at 30 uM by CCK8 assay relative to control; type: functional
[3] = system: NCI-H460; experiment: Antiproliferative activity against human NCI-H460 cells assessed as reduction in cell growth by CCK8 assay; type: functional, cell-based
[4] = system: A549; experiment: Antiproliferative activity against human A549 cells assessed as reduction in cell growth by CCK8 assay; type: functional, cell-based

Compound	inhibition at 30 µM [1] [%]	inhibition at 30 µM [2] [%]	IC50 [3] [µM]	IC50 [4] [µM]
C[C@H](Cc1cnc2ccc(Br)cc2c1)[C@H]1CC[C@@]2(C)[C@@H]3CC=C4[C@@H](CC[C@H](O)C4(C)C)[C@]3(C)[C@H](O)C[C@]12C	-12.4	53.3	–	–
C[C@H](CC[C@@H](O)C(C)(C)O)[C@H]1CC[C@@]2(C)[C@@H]3CC=C4[C@@H](CC[C@H](O)C4(C)C)[C@]3(C)[C@H](O)C[C@]12C [MOGROL]	-13.2	62.9	> 100	27.8
Cc1ccc(-c2cn(CC(=O)OCCC[C@@H](C)[C@H]3CC[C@@]4(C)[C@@H]5CC=C6[C@@H](CC[C@H](O)C6(C)C)[C@]5(C)[C@H](O)C[C@]34C)nn2)cc1	10.9	88.4	–	23.8
C[C@H](CC[C@@H](O)C(C)(C)O)[C@H]1CC[C@@]2(C)[C@@H]3CC=C4[C@@H](Cc5cc6cc(Br)ccc6nc5C4(C)C)[C@]3(C)C(=O)C[C@]12C	17	69.4	–	13.1
Cc1ccc(-c2cn(CC(=O)O[C@@H]3C[C@]4(C)[C@@H]([C@H](C)CC[C@@H](O)C(C)(C)O)CC[C@@]4(C)[C@@H]4CC=C5[C@@H](CC[C@H](O)C5(C)C)[C@@]43C)nn2)cc1	40	77.3	–	5.96
O=c1[nH]cc(F)c(=O)[nH]1 [FLUOROURACIL]	–	–	7.03	1.65
C[C@H](Cc1cnc2cc(Br)ccc2c1)[C@H]1CC[C@@]2(C)[C@@H]3CC=C4[C@@H](CC[C@H](O)C4(C)C)[C@]3(C)[C@H](O)C[C@]12C	0.71	42.7	–	–
C[C@H](CC[C@@H](O)C(C)(C)O)[C@H]1CC[C@@]2(C)[C@@H]3CC=C4[C@@H](CC[C@H](O)C4(C)C)[C@]3(C)[C@H](OC(=O)Cn3cc(-c4ccsc4)nn3)C[C@]12C	44.9	90.5	–	6.27
C[C@H](CC[C@@H](O)C(C)(C)O)[C@H]1CC[C@@]2(C)[C@@H]3CC=C4[C@@H](Cc5cc6cc(Cl)ccc6nc5C4(C)C)[C@]3(C)C(=O)C[C@]12C	13.1	84.1	–	12.9
C[C@H](CC[C@@H](O)C(C)(C)O)[C@H]1CC[C@@]2(C)[C@@H]3CC=C4[C@@H](CC[C@H](O)C4(C)C)[C@]3(C)[C@H](OC(=O)Cn3cc(-c4ccccc4)nn3)C[C@]12C	44.9	83	–	6.75
C[C@H](CC[C@@H](O)C(C)(C)O)[C@H]1CC[C@@]2(C)[C@@H]3CC=C4[C@@H](Cc5cc6ccc(Br)cc6nc5C4(C)C)[C@]3(C)C(=O)C[C@]12C	1.65	22	–	–
C[C@H](Cc1cnc2cc(Cl)ccc2c1)[C@H]1CC[C@@]2(C)[C@@H]3CC=C4[C@@H](CC[C@H](O)C4(C)C)[C@]3(C)[C@H](O)C[C@]12C	-1.18	17.4	–	–
C[C@H](CC[C@@H](O)C(C)(C)O)[C@H]1CC[C@@]2(C)[C@@H]3CC=C4[C@@H](Cc5cc6ccc(Cl)cc6nc5C4(C)C)[C@]3(C)C(=O)C[C@]12C	2.18	6.68	–	–
C[C@H](CC[C@@H](O)C(C)(C)O)[C@H]1CC[C@@]2(C)[C@@H]3CC=C4[C@@H](Cc5cc6ccccc6nc5C4(C)C)[C@]3(C)C(=O)C[C@]12C	80.2	94.3	17.1	13.8
C[C@H](Cc1cnc2cnccc2c1)[C@H]1CC[C@@]2(C)[C@@H]3CC=C4[C@@H](CC[C@H](O)C4(C)C)[C@]3(C)[C@H](O)C[C@]12C	25.8	90.2	–	18.2
C[C@H](CC[C@@H](O)C(C)(C)O)[C@H]1CC[C@@]2(C)[C@@H]3CC=C4[C@@H](CC[C@H](O)C4(C)C)[C@]3(C)[C@H](OC(=O)Cn3cc(-c4ccc(C#N)cc4)nn3)C[C@]12C	20.5	76.7	–	5.79
C[C@H](CC[C@@H](O)C(C)(C)O)[C@H]1CC[C@@]2(C)[C@@H]3CC=C4[C@@H](Cc5cc6ccncc6nc5C4(C)C)[C@]3(C)C(=O)C[C@]12C	81.1	95.2	18.3	14.3
C[C@H](CCCOC(=O)Cn1cc(-c2ccccc2)nn1)[C@H]1CC[C@@]2(C)[C@@H]3CC=C4[C@@H](CC[C@H](O)C4(C)C)[C@]3(C)[C@H](O)C[C@]12C	7.56	87.9	–	22.5
C[C@H](CCCOC(=O)Cn1cc(-c2ccsc2)nn1)[C@H]1CC[C@@]2(C)[C@@H]3CC=C4[C@@H](CC[C@H](O)C4(C)C)[C@]3(C)[C@H](O)C[C@]12C	8.3	90.5	–	26.1
C[C@H](CCCOC(=O)Cn1cc(C2CC2)nn1)[C@H]1CC[C@@]2(C)[C@@H]3CC=C4[C@@H](CC[C@H](O)C4(C)C)[C@]3(C)[C@H](O)C[C@]12C	6.43	89.2	–	17.7
C[C@H](Cc1cnc2ccccc2c1)[C@H]1CC[C@@]2(C)[C@@H]3CC=C4[C@@H](CC[C@H](O)C4(C)C)[C@]3(C)[C@H](O)C[C@]12C	69.9	91.5	24.6	19.2
C[C@H](CC[C@@H](O)C(C)(C)O)[C@H]1CC[C@@]2(C)[C@@H]3CC=C4[C@@H](CC[C@H](O)C4(C)C)[C@]3(C)[C@H](OC(=O)Cn3cc(C4CC4)nn3)C[C@]12C	34.7	92.9	–	19.8
C[C@H](Cc1cnc2ccc(Cl)cc2c1)[C@H]1CC[C@@]2(C)[C@@H]3CC=C4[C@@H](CC[C@H](O)C4(C)C)[C@]3(C)[C@H](O)C[C@]12C	-12.6	10.6	–	–
